Experiments:
[1] = biological target: human Adenosine A1 receptor (Homo sapiens (Human), UniProt P30542); experiment: Adenosine receptor TR-FRET binding assay (A1); conditions: inhibition of binding of 100 nM CA200645, CHO cell membranes
Method in brief: (§1)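 In this homogeneous assay, test compounds compete with tracer CA200645 for Tb-labelled human adenosine receptors expressed in CHO cell membranes over 2 h at room temperature. Tracer levels differ by subtype: 30 nM for A2b, 100 nM for A1, A2a and A3. Specific FRET signal yields IC50, converted to Ki.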

[2] = biological target: human Adenosine A2a receptor (Homo sapiens (Human), UniProt P29274); experiment: Adenosine receptor TR-FRET binding assay (A2a); conditions: inhibition of binding of 100 nM CA200645, CHO cell membranes
Method in brief: as §1

[3] = test system: immature monocyte-derived dendritic cells (MoDC); experiment: MoDC pCREB assay; type: cell-based, human; conditions: Homo sapiens, Dendritic cell; pCREB in immature MoDC, 1 μM NECA, rolipram
Protocol: Monocytes are isolated from human whole blood using CD14 microbeads (Miltenyi Biotec 130-050-201) and differentiated to immature monocyte-derived dendritic cells (MoDC) by culture for 5 days in Mo-DC Differentiation Medium (Miltenyi Biotec 130-094-812). MoDCs are seeded into fresh medium into U bottomed 96 well culture plates and pre-incubated at 37° C. with serial dilutions of A2A/B antagonists for 15 min. At the same time the cells are co-incubated with the phosphodiesterase inhibitor rolipram (final concentration of 20 µM) to amplify the subsequent pCREB response. Adenosine receptor agonist NECA is then added at 1 μM final concentration, leading to an increase in CREB phosphorylation. Following a 45 min incubation at 37° C., the cells are fixed, permeabilized and stained with directly conjugated fluorescent antibodies to phospho-CREB (Alexa Fluor 488), CD209 (PerCP-Cy5.5) and CD86 (APC). Samples are analysed by FACS to measure fluorescence in corresponding channels, and also forward and Side scatter. The population of CD209+/CD86− low cells corresponding to immature dendritic cells is gated for analysis of pCREB levels.
Approximately 5% of the analysed cells are positive for detection of pCREB in the absence of agonist stimulation, representing the background signalling of all pathways upstream of CREB. Following NECA stimulation this is increased to ˜80% pCREB+ve, and this increase is essentially fully reversible by A2B or dual A2A/B antagonists.
IC50 is represented as the point of inflection of a sigmoidal curve

[4] = test system: CD8+T cells in human whole blood; experiment: Measurement of pCREB in CD8+T cells in human whole blood; type: cell-based; conditions: 3 μM NECA, rolipram
Method in brief: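 Heparinised human whole blood pre-incubated 20 min at 37 °C with serially diluted A2a antagonists plus rolipram, then stimulated 60 min with 3 μM NECA (final). After fixation and red-cell lysis, white cells were permeabilized and stained for phospho-CREB and CD8; pCREB in CD8+ T cells measured by flow cytometry.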

human PBMCs = experiment: CD3/CD28 stimulated IL-2 release NECA reversal assay in human PBMCs; type: cell-based; conditions: PBMC, 1 uM NECA, 24 hours, IL-2 in culture supernatant
Method in brief: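 PBMCs from citrated healthy-donor blood plated at 50,000 cells/well on 1 ug/ml CD3 antibody with 1 ug/ml CD28 antibody, 1 uM NECA and 0.003-10 μM antagonist (final), 24 h at 37° C. Supernatant IL-2 measured by MSD immunoassay; % inhibition set against no-NECA control wells as 100%.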

[5] = biological target: human Adenosine A3 receptor (Homo sapiens (Human), UniProt P0DMS8); experiment: Adenosine receptor TR-FRET binding assay (A3); conditions: inhibition of binding of 100 nM CA200645, CHO cell membranes
Method in brief: as §1

[6] = biological target: human Adenosine A2b receptor (Homo sapiens (Human), UniProt P29275); experiment: Adenosine receptor TR-FRET binding assay (A2b); conditions: TR-FRET, inhibition of binding of 30 nM CA200645, CHO cell membranes
Method in brief: as §1

Chain of human Adenosine A1 receptor (P30542 whole entry): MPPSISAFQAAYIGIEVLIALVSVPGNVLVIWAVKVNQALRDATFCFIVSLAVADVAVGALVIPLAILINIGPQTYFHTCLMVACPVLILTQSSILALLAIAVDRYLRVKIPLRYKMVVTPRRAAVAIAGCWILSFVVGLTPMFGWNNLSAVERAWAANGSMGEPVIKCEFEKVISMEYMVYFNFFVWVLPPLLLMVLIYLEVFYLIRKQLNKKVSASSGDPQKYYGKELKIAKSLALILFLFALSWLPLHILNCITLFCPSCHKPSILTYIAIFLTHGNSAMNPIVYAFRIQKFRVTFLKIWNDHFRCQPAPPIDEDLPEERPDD
Chain of human Adenosine A3 receptor (P0DMS8 whole entry): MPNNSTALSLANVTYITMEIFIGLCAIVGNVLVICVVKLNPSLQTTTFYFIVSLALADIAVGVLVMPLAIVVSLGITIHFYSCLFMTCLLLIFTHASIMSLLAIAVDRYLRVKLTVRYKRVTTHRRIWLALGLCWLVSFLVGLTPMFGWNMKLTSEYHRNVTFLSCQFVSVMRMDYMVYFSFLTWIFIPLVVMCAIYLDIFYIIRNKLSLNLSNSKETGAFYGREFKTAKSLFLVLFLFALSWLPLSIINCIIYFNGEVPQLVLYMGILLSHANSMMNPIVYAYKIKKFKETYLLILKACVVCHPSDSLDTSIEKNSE
Chain of human Adenosine A2a receptor (P29274 whole entry): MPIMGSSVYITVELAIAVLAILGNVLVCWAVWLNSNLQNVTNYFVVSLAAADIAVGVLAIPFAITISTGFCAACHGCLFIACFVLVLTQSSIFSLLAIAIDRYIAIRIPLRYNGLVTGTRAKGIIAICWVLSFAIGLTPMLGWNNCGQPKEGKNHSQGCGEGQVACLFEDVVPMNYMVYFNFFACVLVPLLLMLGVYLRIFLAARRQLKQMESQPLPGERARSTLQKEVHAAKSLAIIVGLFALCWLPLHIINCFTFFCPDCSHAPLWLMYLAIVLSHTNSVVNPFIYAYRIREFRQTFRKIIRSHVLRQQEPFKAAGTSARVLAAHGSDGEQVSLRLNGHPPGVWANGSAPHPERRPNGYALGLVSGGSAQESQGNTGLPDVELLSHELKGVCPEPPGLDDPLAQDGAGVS
Chain of human Adenosine A2b receptor (P29275 whole entry): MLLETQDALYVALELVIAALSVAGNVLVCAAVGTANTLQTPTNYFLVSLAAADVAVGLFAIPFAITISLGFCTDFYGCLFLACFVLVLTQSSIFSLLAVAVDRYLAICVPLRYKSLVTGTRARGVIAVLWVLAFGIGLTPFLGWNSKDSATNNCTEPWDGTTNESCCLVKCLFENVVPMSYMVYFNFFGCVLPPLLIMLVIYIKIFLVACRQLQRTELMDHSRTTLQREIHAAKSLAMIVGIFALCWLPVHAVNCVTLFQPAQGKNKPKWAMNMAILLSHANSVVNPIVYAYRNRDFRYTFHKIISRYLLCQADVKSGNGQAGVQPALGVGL

## Cc1cc(-c2sc(NC(=O)N3CC[S+]([O-])CC3)nc2-c2cccc(C#N)c2)cc(C)n1 [Example 4.24, N-[4-(3-Cyanophenyl)-5-(2,6-dimethyl-4-pyridyl)thiazol-2-yl]-1-oxo-1,4-thiazinane-4-carboxamide]
[1]
  Ki: 15 nM
[2]
  Ki: 0.18 nM
[3]
  IC50: 79 nM
[4]
  IC50: 80 nM
Human PBMCs
  IC50: 2.8 nM
[5]
  Ki: 383 nM
[6]
  Ki: 2.4 nM

## Cc1cc(-c2sc(NC(=O)N3CCC4(CC3)C(=O)N(C)C(=O)N4C)nc2-c2cccc(C#N)c2)cc(C)n1 [Example 4.28, N-[4-(3-Cyanophenyl)-5-(2,6-dimethyl-4-pyridyl)thiazol-2-yl]-1,3-dimethyl-2,4-dioxo-1,3,8-triazaspiro[4.5]decane-8-carboxamide]
[1]
  Ki: 135 nM
[2]
  Ki: 0.48 nM
[3]
  IC50: 10 nM
[4]
  IC50: 670 nM
Human PBMCs
  IC50: 4.7 nM
[5]
  Ki: 77 nM
[6]
  Ki: 2.4 nM

## Cc1cc(-c2sc(NC(=O)N3CCC(C#N)(C#N)CC3)nc2-c2cccc(C#N)c2)cc(C)n1 [Example 4.32, 4,4-Dicyano-N-[4-(3-cyanophenyl)-5-(2,6-dimethyl-4-pyridyl)thiazol-2-yl]piperidine-1-carboxamide]
[1]
  Ki: 26 nM
[2]
  Ki: 0.15 nM
[3]
  IC50: 14 nM
[4]
  IC50: 60 nM
Human PBMCs
  IC50: 0.7 nM
[5]
  Ki: 457 nM
[6]
  Ki: 1.1 nM

## Cc1cc(-c2sc(NC(=O)N3CCC(C)(C#N)CC3)nc2-c2cccc(C#N)c2)cc(C)n1 [Example 6, 4-Cyano-N-[4-(3-cyanophenyl)-5-(2,6-dimethyl-4-pyridyl)thiazol-2-yl]-4-methyl-piperidine-1-carboxamide]
[1]
  Ki: 37 nM
[2]
  Ki: 0.12 nM
[3]
  IC50: 9 nM
[4]
  IC50: 70 nM
Human PBMCs
  IC50: 0.6 nM
[5]
  Ki: 283 nM
[6]
  Ki: 1.1 nM

## Cc1cc(-c2sc(NC(=O)N3CCC4(CC3)NC(=O)N(C)C4=O)nc2-c2cccc(C#N)c2)cc(C)n1 [Example 6.6, N-[4-(3-Cyanophenyl)-5-(2,6-dimethyl-4-pyridyl)thiazol-2-yl]-3-methyl-2,4-dioxo-1,3,8-triazaspiro[4.5]decane-8-carboxamide]
[1]
  Ki: 81 nM
[2]
  Ki: 1.44 nM
[3]
  IC50: 24 nM
[4]
  IC50: 600 nM
Human PBMCs
  IC50: 8.2 nM
[5]
  Ki: 233 nM
[6]
  Ki: 1.3 nM

## Cc1cc(-c2sc(NC(=O)N3CC(C)(C#N)C3)nc2-c2cccc(C#N)c2)cc(C)n1 [Example 6.7, 3-Cyano-N-[4-(3-cyanophenyl)-5-(2,6-dimethyl-4-pyridyl)thiazol-2-yl]-3-methyl-azetidine-1-carboxamide]
[1]
  Ki: 14 nM
[2]
  Ki: 0.11 nM
[3]
  IC50: 7 nM
[4]
  IC50: 20 nM
Human PBMCs
  IC50: 0.8 nM
[5]
  Ki: 281 nM
[6]
  Ki: 0.7 nM

## Cc1cc(-c2sc(NC(=O)N3CC[C@@H](C(C)(C)O)C3)nc2-c2cccc(C#N)c2)cc(C)n1 [Example 6.36, (3R)-N-[4-(3-Cyanophenyl)-5-(2,6-dimethyl-4-pyridyl)thiazol-2-yl]-3-(1-hydroxy-1-methyl-ethyl)pyrrolidine-1-carboxamide]
[1]
  Ki: 133 nM
[2]
  Ki: 0.87 nM
[3]
  IC50: 16 nM
[4]
  IC50: 90 nM
Human PBMCs
  IC50: 4.2 nM
[5]
  Ki: 377 nM
[6]
  Ki: 4.2 nM

## Cc1cc(-c2sc(NC(=O)N3CC4(C3)CS(=O)(=O)C4)nc2-c2cccc(C#N)c2)cc(C)n1 [Example 6.46, N-[4-(3-Cyanophenyl)-5-(2,6-dimethyl-4-pyridyl)thiazol-2-yl]-2,2-dioxo-2λ^∧{6}-thia-6-azaspiro[3.3]heptane-6-carboxamide]
[1]
  Ki: 113 nM
[2]
  Ki: 2.06 nM
[3]
  IC50: 38 nM
[4]
  IC50: 360 nM
Human PBMCs
  IC50: 15.1 nM
[5]
  Ki: 235 nM
[6]
  Ki: 1.9 nM

## Cc1cc(-c2sc(NC(=O)N3CC4(CCOC4)C3)nc2-c2cccc(C#N)c2)cc(C)n1 [Example 6.53, N-[4-(3-Cyanophenyl)-5-(2,6-dimethyl-4-pyridyl)thiazol-2-yl]-6-oxa-2-azaspiro[3.4]octane-2-carboxamide]
[1]
  Ki: 110 nM
[2]
  Ki: 0.27 nM
[3]
  IC50: 40 nM
[4]
  IC50: 130 nM
Human PBMCs
  IC50: 2.5 nM
[5]
  Ki: 662 nM
[6]
  Ki: 1.6 nM

Reference: patent US20230293517A1, “ANTAGONIST COMPOUNDS” (AdoRx Therapeutics Limited, priority 2020, published 2023)
